Measurements reported in patent US20240245702A1, “Inhibition of Lysine Demethylase 1 (Lsd1) Induces Differentiation of Hair Cells” (Massachusetts Eye and Ear Infirmary, priority 2018, published 2024).

Legend:
[1] = test system: active β-catenin; experiment: Western blot for active β-catenin in differentiating LCPs; assay type: cell-based, mouse; settings: western blot after 4 days of differentiation, relative to untreated control
Description: Western blot analysis. For protein collection, cells were washed twice with PBS and then lysed by lysis buffer (20 mM HEPES, 400 mM NaCl, 1 mM EDTA, 0.1% NP-40 and 10% Glycerol) supplemented with HALT protease and phosphatase inhibitors (Thermo Fisher Scientific, Waltham, MA). Lysates were then centrifuged at 13,000 g for 15 min at 4° C., and each supernatant was collected. Protein concentration was determined using the Pierce BCA Protein Assay Kit (Pierce Biotechnology, Rockford, IL). Proteins within each lysate were separated by SDS-PAGE (Bio-Rad Laboratories, Inc., Hercules, CA) and transferred to polyvinylidene difluoride membranes. After incubation with primary antibody, membranes were washed with Tris-buffered saline with Tween 20 and exposed to an appropriate horseradish peroxidase-conjugated secondary antibody (Santa Cruz Biotechnology, Santa Cruz, CA); immunoblot signals were detected with Pierce ECL Western blotting substrate or ECL plus (Thermo Fisher Scientific, Waltham, MA).
Active canonical Wnt signaling is facilitated by the nuclear translocation of β-catenin, which binds with transcription factors of the Tcf/Lef family to activate transcription. To further validate our RNA-sequencing data, we proceeded to examine the levels of active β-catenin using western blot after pargyline treatment. […] We also analyzed Wnt activity in the treated cells using a Tcf/Lef reporter assay.

[2] = test system: Axin2; experiment: qRT-PCR of Axin2 in adult cochlea after noise damage and drug treatment; assay type: in vivo, mouse; settings: 3 days after drug treatment of noise-damaged animals, p<0.05
Description: (§1) RNA extraction and PCR. For the LCPs, the organoids were treated with Cell Recovery Solution for at 1 hour and TrypleE for 20 minutes, then frozen in RLT buffer. RNA extractions were performed using the RNeasy Micro Kit (QIAGEN) and cDNA generated using ImProm-II Reverse Transcription Kit (Promega). TaqMan Real-Time PCR was performed in triplicates using the TaqMan Gene Expression Master Mix (ThermoFisher Scientific) on a StepOne Real-Time PCR machine (ThermoFisher Scientific). Ordinary One-way Anova was used to assess statistical significance. A minimum of three biologically distinct samples were analyzed for each condition.
(§2) Round window drug administration. We used four-week-old mice weighing 12-15 g. The animals were anesthetized with ketamine ([…], intraperitoneally [i.p.]) and xylazine ([…], i.p.) prior to surgery. An incision was made posterior to the pinna near the external meatus to expose the otic bulla and subsequently the round window niche. pargyline and CHIR99021 dissolved in DMSO were diluted in polyethylene glycol 400 (Sigma) to obtain final concentrations of 0.1 and 5 mM. This solution (total volume 1 ul) was injected into the round window niche of the left ear. Polyethylene glycol 400 with 10% DMSO was injected into the right ear as a control. Gelfoam was placed on the niche to maintain the solution, and the wound was closed. […]

[3] = test system: Hes1; experiment: qRT-PCR of Hes1 in adult cochlea after noise damage and drug treatment; assay type: in vivo, mouse; settings: 3 days after drug treatment of noise-damaged animals
Description: as §1, §2

[4] = test system: Atoh1; experiment: qRT-PCR of Atoh1 in adult cochlea after noise damage and drug treatment; assay type: in vivo, mouse; settings: deaf adult cochlea relative to the control, 3 days after treatment, p<0.05
Description: as §1, §2

[5] = test system: Lgr5-expressing cochlear progenitors cells (LCPs); experiment: Proliferation of Lgr5+ cochlear progenitors (LCPs) in organoid culture; assay type: cell-based, mouse; settings: first 10 days in culture, Lgr5-nGFP mice cells, combined with CHIR99021
Description: Isolation and expansion of inner ear Lgr5+ cells. A recently published protocol was used to derive organoids from inner ear stem cells [also referred to as Lgr5+ cochlear progenitors (LCPs) (McLean et al., 2017). Briefly, the organ of Corti was dissected from neonatal mice (postnatal days 2-5) in Hank's balanced salt solution and treated with Cell Recovery Solution (Corning) for 1 hour. The cochlear epithelium was then peeled from the underlying mesenchyme, collected and treated with TrypleE for 20 minutes at 37° C. The single cells were mechanically triturated, filtered ([…] cell strainer) and suspended in a Matrigel (Corning) dome for 3D culture. The cells were seeded in a 24-well plate, specifically at one cochlea per well of a 24-well plate.
For the drug screening experiments, the expanded cells were passaged into a 96 well plate to test varying drug combinations. All experiments were done in triplicate at minimum. Atoh1-nGFP cells were quantified after 10 days in culture. The cell colonies were incubated in Cell Recovery Solution for 1 hour and dissociated into single cells using TrypleE. The total cell number and percentage of GFP+ cells were quantified using fluorescence activated cell sorting (FACS).
We screened a collection of Lsd1 inhibitors over the first 10 days in culture (FIGS. 9A and 9B) to examine their effect on proliferation of LCPs (FIGS. 9C and 9D). […]

SMILES: Cc1c[nH]c(-c2cnc(NCCNc3ccc(C#N)cn3)nc2-c2ccc(Cl)cc2Cl)n1 [CHIR99021]
- active β-catenin, fold change [1]: 2.95 fold
- Axin2 mRNA level [2]: significantly higher levels
- Hes1 mRNA level [3]: reduced levels
- Atoh1 mRNA level [4]: significantly elevated

SMILES: CCCC(CCC)C(=O)O [valproic acid]
- proliferation of Lgr5 cells (LCP cell division) [5]: 63%
